Reference: patent US12662480B2, “Microbiocidal derivatives” (SYNGENTA CROP PROTECTION AG, priority 2020, dated 2026)

Tests used:
[1] = system: Puccinia recondita f. sp. tritici; experiment: Puccinia recondita f. sp. tritici / wheat / leaf disc curative (brown rust); type: in vivo; conditions: foliar, 24 h, wheat leaf segments cv. Kanzler, compound applied 1 day after inoculation, compared to untreated control
Procedure: Example B9: Puccinia recondita f. Sp. Tritici/Wheat/Leaf Disc Curative (Brown Rust) Wheat leaf segments cv. Kanzler are placed on agar in multiwell plates (24-well format). The leaf segments are inoculated with a spore suspension of the fungus. Plates are stored in darkness at 19° C. and 75% rh. The formulated test compound diluted in water is applied 1 day after inoculation. The leaf segments are incubated at 19° C. and 75% rh under a light regime of 12 h light/12 h darkness in a climate cabinet and the activity of a compound is assessed as percent disease control compared to untreated when an appropriate level of disease damage appears in untreated check leaf segments (6-8 days after application). […] […]-9, and P-11.

[2] = system: Puccinia recondita f. sp. tritici; experiment: Puccinia recondita f. sp. tritici / wheat / leaf disc preventative (brown rust); type: in vivo; conditions: foliar, wheat leaf segments cv. Kanzler, inoculated 1 day after application, compared to untreated control
Procedure: Example B10: Puccinia recondita f. Sp. Tritici/Wheat/Leaf Disc Preventative (Brown Rust) Wheat leaf segments cv. Kanzler are placed on agar in multiwell plates (24-well format) and sprayed with the formulated test compound diluted in water. The leaf disks are inoculated with a spore suspension of the fungus 1 day after application. The inoculated leaf segments are incubated at 19° C. and 75% rh under a light regime of 12 h light/12 h darkness in a climate cabinet and the activity of a compound is assessed as percent disease control compared to untreated when an appropriate level of disease damage appears in untreated check leaf segments (7-9 days after application). […] […]-10, and P-11.

SMILES | pest or weed control at 200 ppm [1] [%] | pest or weed control at 200 ppm [2] [%]
COC(C)C(=O)N(c1cc(F)nc(F)c1)c1nc(C(=O)NC2CCC2(C)C)c(C)s1 (stereo not drawn) [Compound P-9, 2-[(2,6-difluoro-4-pyridyl)-(2-methoxypropanoyl)amino]-N-(2,2-dimethylcyclobutyl)-5-methyl-thiazole-4-carboxamide] | ≥ 80 | ≥ 80
Cc1sc(N(C(=O)C2CCCO2)c2cc(F)nc(F)c2)nc1C(=O)NC1CCC1(C)C (stereo not drawn) [Compound P-2, 2-[(2,6-difluoro-4-pyridyl)-(tetrahydrofuran-2-carbonyl)amino]-N-(2,2-dimethylcyclobutyl)-5-methyl-thiazole-4-carboxamide] | ≥ 80 | ≥ 80
Cc1sc(N(C(=O)COC(C)(C)C)c2cc(F)nc(F)c2)nc1C(=O)NC1CCC1(C)C (stereo not drawn) [Compound P-7, 2-[(2-tert-butoxyacetyl)-(2,6-difluoro-4-pyridyl)amino]-N-(2,2-dimethylcyclobutyl)-5-methyl-thiazole-4-carboxamide] | – | ≥ 80
Cc1sc(N(C(=O)C(C)OC(C)C)c2cc(F)nc(F)c2)nc1C(=O)NC1CCC1(C)C (stereo not drawn) [Compound P-6, 2-[(2,6-difluoro-4-pyridyl)-(2-isopropoxypropanoyl)amino]-N-(2,2-dimethylcyclobutyl)-5-methyl-thiazole-4-carboxamide] | ≥ 80 | ≥ 80
Cc1sc(N(C(=O)C2COC2)c2cc(F)nc(F)c2)nc1C(=O)NC1CCC1(C)C (stereo not drawn) [Compound P-4, 2-[(2,6-difluoro-4-pyridyl)-(oxetane-3-carbonyl)amino]-N-(2,2-dimethylcyclobutyl)-5-methyl-thiazole-4-carboxamide] | ≥ 80 | ≥ 80
Cc1sc(N(C(=O)C(C)OC(C)(C)C)c2cc(F)nc(F)c2)nc1C(=O)NC1CCC1(C)C (stereo not drawn) [Compound P-5, 2-[2-tert-butoxypropanoyl-(2,6-difluoro-4-pyridyl)amino]-N-(2,2-dimethylcyclobutyl)-5-methyl-thiazole-4-carboxamide] | ≥ 80 | ≥ 80
Cc1sc(N(C(=O)C2CCOC2)c2cc(F)nc(F)c2)nc1C(=O)NC1CCC1(C)C (stereo not drawn) [Compound P-3, 2-[(2,6-difluoro-4-pyridyl)-(tetrahydrofuran-3-carbonyl)amino]-N-(2,2-dimethylcyclobutyl)-5-methyl-thiazole-4-carboxamide] | ≥ 80 | ≥ 80
Cc1sc(N(C(=O)C2CCOCC2)c2cc(F)nc(F)c2)nc1C(=O)NC1CCC1(C)C (stereo not drawn) [Compound P-11, 2-[(2,6-difluoro-4-pyridyl)-(tetrahydropyran-4-carbonyl)amino]-N-(2,2-dimethylcyclobutyl)-5-methyl-thiazole-4-carboxamide] | ≥ 80 | ≥ 80
Cc1sc(N(C(=O)C2CCOC2)c2cc(F)nc(F)c2)nc1C(=O)N(C(=O)C1CCOC1)C1CCC1(C)C (stereo not drawn) [Compound P-1, 2-[(2,6-difluoro-4-pyridyl)-(tetrahydrofuran-3-carbonyl)amino]-N-(2,2-dimethylcyclobutyl)-5-methyl-N-(tetrahydrofuran-3-carbonyl)thiazole-4-carboxamide] | ≥ 80 | ≥ 80
Cc1sc(N(C(=O)C(C)S(C)(=O)=O)c2cc(F)nc(F)c2)nc1C(=O)NC1CCC1(C)C (stereo not drawn) [Compound P-10, 2-[(2,6-difluoro-4-pyridyl)-(2-methylsulfonylpropanoyl)amino]-N-(2,2-dimethylcyclobutyl)-5-methyl-thiazole-4-carboxamide] | – | ≥ 80
